From patent US20260123631A1, “NATURAL PORPHIN SALT AND USE THEREOF AS PLANT GROWTH REGULATOR AND PLANT IMMUNITY INDUCER” (NANJING BOSTEC BIOLOGICAL ENGINEERING CO., LTD, priority 2022, published 2026)

Columns and labels:
[1] = test system: rice; experiment: Rice yield in the sheath blight field experiment; assay type: in vivo, rice (Nanjing 9108); conditions: 3.0 mg/mu sprayed 3 times
Protocol: A test sample was dissolved, diluted, thoroughly stirred, and then applied, with an application area of 3 mu for each treatment. The harvesting was conducted on Nov. 8, 2021. On the eve of harvesting, the yield composition and structure were investigated. Then a yield per mu was measured.

[2] = test system: sheath blight in rice; experiment: Field control of sheath blight in rice; assay type: in vivo, rice (Nanjing 9108); conditions: 3.0 mg/mu sprayed 3 times (0.100, 0.067, 0.067 ppm)
Protocol: A test sample was dissolved, diluted, thoroughly stirred, and then applied, with an application area of 3 mu for each treatment. Before harvesting, five-point sampling (20 m^2 per sampling point) was conducted for each treatment to determine the details of sheath blight in rice.

[3] = test system: rice; experiment: Alleviation of herbicide damage in rice; assay type: in vivo, rice (Jinjing 818); conditions: 0.25 ppm
Protocol: Method: A treatment plot of 1.5 mu and a control plot of 1.5 mu were set. The sample was sprayed twice after the herbicide damage occurred in rice sprayed with a herbicide. Clear water was adopted as a blank control. Specific operations were as follows:
On June 20 when weeds had 3 leaves and rice had 3 to 3.5 leaves, the treatment plot and the control plot both were treated with 4% imazamox at 200 mL/mu and 10% pyribenzoxim at 40 mL/mu by a stem and leaf spray method, with 30 kg of water per mu. One week later, a weeding effect was prominent, but rice underwent obvious pesticide damage. 10 d after the herbicide application (June 30), the treatment plot was sprayed with the sample at 7.5 mg/mu by a stem and leaf spray method, with a solution of 30 L per mu. The control plot was sprayed with clear water. At an inflorescence emergence stage of rice (August 25), the spraying was conducted once again by the same method.

[4] = test system: tobacco; experiment: Spraying on tobacco to improve a yield; assay type: in vivo, tobacco (Yunyan 87); conditions: 45 L per mu
Protocol: Method: Four spraying concentrations were set. For each treatment, four plots were adopted, with each plot of 20 m^2. […] During harvesting, sampling was conducted to count a plant height, a leaf length, a leaf width, and a single-leaf weight. All tobacco leaves of the plots were baked into flue-cured tobacco. […]

[5] = test system: leaf blast in rice; experiment: Field control of leaf blast in rice; assay type: in vivo, rice (Nanjing 9108); conditions: 3 mg/mu sprayed 3 times (0.1, 0.067, 0.067 ppm)
Protocol: The experiment was conducted according to experimental specifications in the field efficacy standard of GB/T17980.19-2000. In the experiment, the following two treatments were set: a first treatment: sodium iron chlorin was applied, and a second treatment: a blank control (water) was applied. A test sample was fully dissolved and diluted, and then applied. Based on the characteristics of disease and pest control, an agent was applied once at each of a late tillering stage (Jul. 22, 2021), a jointing-booting stage (Aug. 16, 2021), and a full heading stage (Aug. 30, 2021). […] Water amounts required per mu for the three times were 30 L, 45 L, and 45 L (sample concentrations: 0.1 ppm, 0.067 ppm, and 0.067 ppm), respectively. An area for each treatment was 3 mu. According to a five-point sampling method, 5 sampling points (20 m^2 per sampling point) were set for each treatment. The occurrence of leaf blast in rice was investigated in the field before harvesting.

[6] = Water solubility of the prepared salts; assay type: physicochemical
[7] = test system: mosaic virus; experiment: Controlling diseases in tobacco by spraying; assay type: in vivo, tobacco (Yunyan 87); conditions: 30 L/mu
From the text: For each treatment, 4 plots relatively scattered were selected from the field, with each plot of 50 m^2. An agent was sprayed twice around May 28 and June 4 during a root-spreading stage (12 leaves to 14 leaves) after tobacco transplanting, respectively. A same spraying volume (30 L/mu) was adopted for each treatment. During the spraying operation, each leaf surface should be sprayed evenly without dead corners left.
On July 15, tobacco plants in all treatment plots were surveyed. An incidence grading survey was conducted according to the Grade and investigation method of tobacco diseases and insect pests GB/T23222-2008, and an incidence rate and a disease index were counted for each treatment plot.

[8] = test system: Phytophthora capsici; experiment: Pot experiment: resistance of pepper to phytophthora blight; assay type: in vivo; conditions: 2.0 ppm sprayed on pepper seedlings (Sujiao No. 5), inoculated 3 d later
Protocol: Preparation of Phytophthora capsici zoospores: Fungal discs were collected at an edge of a newly-activated Phytophthora capsici plate. 6 mm fungal discs were picked with a needle and transferred to an empty Petri dish with a diameter of 9 cm, with fungi facing up and 10 fungal discs for each plate. 15 mL of sterilized water was added to the Petri dish, and the Petri dish was placed in a clean bench under light. The water was changed once every 30 min for 3 times in total. The remaining wastewater was removed by a pipette, and then 10 mL of the V8 liquid medium was added. The Petri dish was incubated in a 25° C. incubator for 24 h in the dark to induce the production of a large number of sporangiospores. Then the Petri dish was placed in a 4° C. refrigerator for 30 min and then incubated in a 25° C. incubator for 30 min, such that a large number of zoospores were released. 10 L of a sample was collected, and observed and counted with a hemocytometer under a microscope. The remaining sample was collected for later use.
Pepper seedlings at a 4-6 leaf stage were transplanted, with one plant in each pot. […] 3 replicates were set for each treatment, and 18 pots were adopted for each replicate. After the treatment, the observation was conducted regularly once a day. An incidence rate of pepper was recorded, and a disease index and a control efficiency were counted. […]

[9] = DTA/TG thermal analysis; assay type: physicochemical; conditions: nitrogen, 10° C./min, 25° C. to 500° C.
Protocol: Test instrument: Shimadzu DTG-60 DTA-TG synchronous analyzer.
Test samples: Sodium iron chlorin and iron chlorin.
Reference: Aluminum oxide.
Heating rate: 10° C./min.
Heating range: 25° C. to 500° C.
Sample weight: 4.3 mg to 4.5 mg.
Analysis software: ta60WS Ver. 2.11.
Results were shown in FIG. 1, including a DTA comparison chart (the upper part in FIG. 1) and a TG comparison chart (the lower part in FIG. 1) for the samples.

[10] = 7.5 mg/mu sprayed twice after imazamox/pyribenzoxim damage

Substance: sodium iron chlorin [Example 21]
- Ear number per mu [1]: 26.14 10,000
- Filled grain number per ear [1]: 99.93
- Thousand-grain weight [1]: 27.00 g
- Yield [1]: 705.38 kg/mu
- Yield increase rate ([1]; versus clear water): 11.46%
- Corrected control [2]: 45.16%
- Disease index [2]: 21.61%
- Diseased plant rate [2]: 10.4%
- Actual yield [3, 10]: 675 kg/mu
- Ear number/mu [3, 10]: 275945.5
- Filled grain number/ear [3, 10]: 97.64
- Grain number/ear [3, 10]: 104.5
- Seed set rate [3, 10]: 0.9344
- Theoretical yield [3, 10]: 816.8 kg/mu
- Thousand-grain weight [3, 10]: 30.30 g
- increase of yield per mu ([3]; 7.5 mg/mu sprayed twice, versus clear water): ≥ 22%
- Leaf length ([4]; 0.05 ppm sprayed twice): 76.0 cm
- Leaf width ([4]; 0.05 ppm sprayed twice): 28.5 cm
- Plant height ([4]; 0.05 ppm sprayed twice): 114.2 cm
- Weight/leaf ([4]; 0.05 ppm sprayed twice): 8.4 g
- Yield ([4]; 0.05 ppm sprayed twice): 133.75 kg/mu
- Yield increase rate ([4]; 0.05 ppm sprayed twice): 9.4%
- Leaf length ([4]; 0.10 ppm sprayed twice): 77.2 cm
- Leaf width ([4]; 0.10 ppm sprayed twice): 28.9 cm
- Plant height ([4]; 0.10 ppm sprayed twice): 116.7 cm
- Weight/leaf ([4]; 0.10 ppm sprayed twice): 8.7 g
- Yield ([4]; 0.10 ppm sprayed twice): 138.67 kg/mu
- Yield increase rate ([4]; 0.10 ppm sprayed twice): 13.5%
- Leaf length ([4]; 0.20 ppm sprayed twice): 75.6 cm
- Leaf width ([4]; 0.20 ppm sprayed twice): 28.4 cm
- Plant height ([4]; 0.20 ppm sprayed twice): 114.3 cm
- Weight/leaf ([4]; 0.20 ppm sprayed twice): 8.4 g
- Yield ([4]; 0.20 ppm sprayed twice): 133.59 kg/mu
- Yield increase rate ([4]; 0.20 ppm sprayed twice): 9.3%
- Leaf length ([4]; 0.30 ppm sprayed twice): 74.7 cm
- Leaf width ([4]; 0.30 ppm sprayed twice): 28 cm
- Plant height ([4]; 0.30 ppm sprayed twice): 114.5 cm
- Weight/leaf ([4]; 0.30 ppm sprayed twice): 8.3 g
- Yield ([4]; 0.30 ppm sprayed twice): 132.54 kg/mu
- Yield increase rate ([4]; 0.30 ppm sprayed twice): 8.5%
- Average disease index [5]: 20.09%
- Average incidence rate [5]: 8.0%
- Corrected control effect [5]: 43.93%
- solubility in water [6]: easily soluble
- Disease index ([7]; 0.05 ppm sprayed twice): 8.94
- Relative control effect ([7]; 0.05 ppm sprayed twice): 65.48%
- Disease index ([7]; 0.10 ppm sprayed twice): 8.77
- Relative control effect ([7]; 0.10 ppm sprayed twice): 66.13%
- Disease index ([7]; 0.20 ppm sprayed twice): 8.15
- Relative control effect ([7]; 0.20 ppm sprayed twice): 71.00%
- Control effect [8]: 71.89%
- Disease index [8]: 24.36
- thermal stability compared with the acidic sample [9]: significantly-stronger thermal stability
